In patent US10106540B2, “HDAC6 inhibitors and their uses” (Universität Regensburg, priority 2014, dated 2018):

Key:
[1] = tested on: HEK293T cells; assay: HDAC6 overexpression model in HEK293T cells, Western blot; format: cell-based, human; settings: 500 nM MARB1, 48 h
Procedure: However, it is mention worth that MARB1 increases the amount of acetylated tubulin in cells with HDAC6 overexpression. 400,000 cells were seeded on a 6 well plate and incubated for 24 h for adapting and the transfection was allowed for 48 h. […] HSP90 and Tubulin were used as loading control. The cells were collected on ice using Trypsin/EDTA. The overexpression was identified by using the HDAC6 antibody described in Antibodies and Plasmids. n=3 (B) The cells were transfected as described previously and collected under sterile conditions using Trypsin/EDTA. Cells were centrifuged and resuspended in new DMEM with FBS and pen/strep. The cells were splitted 1:2 and seeded per sample into two wells. After 24 h adhesion time cells were stimulated with MARB1 for 48 h. Thereafter cells were collected on ice using Trypsin/EDTA and prepared for SDS-PAGE. […] The samples were generated as described previously. HSP90 was used as loading control. n=1 […]
Western Blot analysis method b was used for the blots illustrated in FIGS. 6 to 9 and 11: Equal amounts of proteins were separated with a sodium dodecyl sulfate-polyacrylamide gel electrophoresis (SDS-PAGE) using an electrophoresis buffer by Laemmli with 1% SDS. […] Fluorescence coupled secondary antibodies (LI-COR) were used and the signal was measured on the Odyssey to detect the proteins. […]

[2] = tested on: MAXF 401; assay: In vitro activity against solid tumor cell lines (FACS analysis method a); format: cell-based; settings: Homo sapiens, MAXF401, Breast
Procedure: (§1) Human breast cancer cell lines MAXF 401 and MAXF MCF-7 (Oncotest GmbH, Freiburg, Germany)
(§2) The assay is carried out as described in Pietschmann et al., 2012 and Brandl et al. 2012. Briefly, 10^5 cells were fixed in 1 ml 70% EtOH with 0.05% Tween-20 overnight at 4° C. The following day, cells were washed with 3 ml 38 mM sodium citrate, pH 7.4, and incubated for 20 min at 37° C. in 0.5 ml 38 mM sodium citrate, pH 7.4, supplemented with 50 μg/ml propidium iodide and 10 μg/ml RNase-A. DNA contents of the cells were measured by fluorescence-activated cell sorter (FACS). This method allows detection of the apoptotic subG1-fraction, which has a DNA content below 2n due to apoptotic cleavage of DNA. Equally, the cell cycle profile can be assessed with this method.
(§3) The novel HDAC6 inhibitors were tested in a panel of tumor cell lines for cytostatic/toxic activities (see Table 2).

[3] = tested on: MAXF MCF-7; assay: as above; format: cell-based; settings: Homo sapiens, MCF7, Breast
Procedure: as §1, §2, §3

[4] = tested on: MV4-11, BV173 and HCT116 cells; assay: Dose and time dependency of MARB1, Western blot method b; format: cell-based, human; settings: 50 nM
Procedure: Cells were seeded on a 6 well plate and incubated as shown. The blots were quantified with Image Studio Lite Version 5.0. (A) 1 Mio cells per sample were seeded and after 2 h adaption time the cells were stimulated as shown, followed by incubation and harvesting of the cells. Tubulin and HSP90 were used as loading control. […] HSP90 and Tubulin were used as loading control. n=1 (C) 200,000 cells were seeded in a 6 well plate and incubated over night for adhesion. B-Actin was used as loading control. n=1
For the examination of the time dependency of MARB1 MV4-11, BV173 and HCT116 cells were tested by western blot. All cells were seeded on a 6 well plate. The blots were quantified with Image Studio Lite Version 5.0. (A) 1 Mio cells per sample were seeded and after 2 h adaption time the cells were stimulated as shown. Following the incubation, the cells were harvested as described earlier. Tubulin and HSP90 were used as loading control. […] HSP90 was used as loading control. […]
Western Blot analysis method b was used for the blots illustrated in FIGS. 6 to 9 and 11: Equal amounts of proteins were separated with a sodium dodecyl sulfate-polyacrylamide gel electrophoresis (SDS-PAGE) using an electrophoresis buffer by Laemmli with 1% SDS. […] Fluorescence coupled secondary antibodies (LI-COR) were used and the signal was measured on the Odyssey to detect the proteins.

[5] = tested on: BV173 cells; assay: Cell cycle analysis by PI staining and flow cytometry (FACS method b); format: cell-based, human; settings: BV173, PI staining
Procedure: 150,000 cells were seeded in 12 well plate and incubated for 2 h for adaption. Cells were harvested on ice and prepared for FACS analysis (following method b). The FACS blots were generated using FACS diva software. n=1
After harvesting the cells on ice and washing them with 1 ml cold PBS, the Pellet were fixed for 1 h in 80% Ethanol by −20° C. After centrifugation the supernatant was discarded and the pellet was resuspended in 333 μl PBS with 10 μg RNase. The cells were incubated 1 h at room temperature with RNase before adding propidium iodide to a final concentration of 16.4 μg/ml and measured by flow cytometry (BD FACS Canto II).

Q: Which results are given for `CN1C(=O)C2CN(Cc3c2c2ccccc2n3Cc2ccc(C(=O)NO)cc2)C1=O` (stereo not shown) [MARB1, N-Hydroxy-4-((4-methyl-3,5-dioxo-3,4,5,6-tetrahydro-2,6-methano[1,3]diazocino[5,6-b]indol-11(1H)-yl)methyl)benzamide]?
A: tubulin acetylation in HDAC6 flag transfected cells [1]: high induction of tubulin acetylation; IC50 [2]: 2280 nM; IC50 [3]: 2330 nM; acetylated tubulin ([4]; incubation for 30 min): increase of acetylated tubulin is detectable; inhibition compared with Tubastatin A ([4]; short time course): faster and at later time points much more effective than Tubastatin A; changes in the cell cycle [5]: no changes in the cell cycle; subG1 population [5]: no increase
